We go through two molecules from patent publication US20110003694A1, “USE OF SOLUTIONS OF MINT OIL OR OF L-CARVONE FOR THE FUNGICIDAL AND/OR ANTI-GERMINATING TREATMENT OF BULBS AND/OR TUBERS” (Zone Artisanale La Crau Route Nationale 7, priority 2007, published 2011).

SMILES strings stand for the structures.

For this assay, the system named is silver scurf (Helminthosporium solani). Put plainly: Silver scurf coverage on Roseval potatoes after three months storage. To be noted: three months storage at 8° C., thermal fogging. The class given is in vivo. As for the experimental part: Roseval potatoes were treated by thermal fogging with mint oil at 90 g/tonne, or with 67-72 g/tonne of L-carvone, then three times at 30 g/tonne, or 22.5-24 g/tonne of L-carvone, at 21-day intervals. They were then stored for three months at 8° C. The silver scurf coverage rates were measured on the batches treated with L-carvone and on the controls treated by thermal fogging with CIPC at 200 g/L at a dose of 60 ml/tonne for the first application then at 40 ml/tonne for the subsequent applications.

Regarding `C=C(C)C1CC=C(C)C(=O)C1` [L-carvone, 2-methyl-5-(1-methylethenyl)-2-cyclohexen-1-one], the “Coverage 5-75% (%) Class 4” value is 0.0%, the “Coverage 6-25% (%) Class 2” value is reported as 0.0 b %, the “Coverage 26-50% (%) Class 3” value came to 0.0 b % and the “Coverage >75% (%) Class 5” value was 0.0%. The “Coverage ≦5% (%) Class 1” value was 28.5%, the “Silver scurf index (0-100)” value worked out at 0.8 b and the “Undamaged tubers (%) Class 0” value amounted to 71.5 a %.

As for `CC(C)OC(=O)Nc1cccc(Cl)c1` [Thermo reference], the “Coverage 5-75% (%) Class 4” value was 0.7%, the “Coverage 6-25% (%) Class 2” value is on record as 7.7 a %, the “Coverage 26-50% (%) Class 3” value turned out to be 3.9 a % and the “Coverage >75% (%) Class 5” value worked out at 1.5%. Besides, the “Coverage ≦5% (%) Class 1” value turned out to be 26.2%, the “Silver scurf index (0-100)” value amounted to 5.7 a and the “Undamaged tubers (%) Class 0” value was 60.2 b %.
